Test results: patent US20200254041A1, “RAPID ONSET AND EXTENDED ACTION PLANT-BASED AND SYNTHETIC CANNABINOID FORMULATIONS” (RECEPTOR HOLDINGS, INC., priority 2017, published 2020)
Values after ≈ are worked out from the molar mass of the structure shown.

Columns and labels:
[1] = cited from earlier work
study participants [2] = assay: Onset and duration of action of orally administered cannabis/SNAC formulation (200 mg SNAC) vs cannabis-only control; participant-reported euphoria/dysphoria; format: in vivo, human; details: 200 mg SNAC in oral cannabis formulation
Description: This study was designed to assess the utility of SNAC in enabling a rapid-acting oral form of cannabis.
Selection of Participants. Six study participants were recruited to ingest cannabis formulations and record the onset, duration, and intensity of cannabis-induced euphoria and/or dysphoria.
(§1) Formulations. The selected cannabis concentrate is commercially available and was provided to participants in an ethanol solution. The concentrate contains 8 mg THC per dose. It was selected because it contains a high percentage of THC, which provides a noticeable effect on user-reported “euphoria”.
(§2) Methods. For the Control experiment, each participant mixed the cannabis concentrate with 15 ml (one tablespoon) of aqueous ethanol, and immediately swallowed the mixture.
(§3) For both the Control experiment and the Test experiment, each participant recorded the time of dose administration, the time of onset of euphoria and/or dysphoria, and the observed level of euphoria and/or dysphoria in fifteen minute intervals for five hours following administration of the cannabis dose. Euphoria and dysphoria were reported using a scale value, in a range from 1-10.

study participants [3] = assay: Onset and duration of action of orally administered cannabis/SNAC formulation at a low SNAC dose (100 mg); participant-reported euphoria; format: in vivo, human; details: 100 mg SNAC in oral cannabis formulation
Description: This study was designed to assess the utility of SNAC in enabling a rapid-acting oral form of cannabis at a low dose.
Selection of Participants. Three study participants were recruited to ingest cannabis formulations and record the onset, duration, and intensity of cannabis-induced euphoria and/or dysphoria.
as §1, §2, §3

[4] = Cannabis/SNAC oral rat pharmacokinetic (PK) study; format: in vivo; details: rats; for AUC compared to the cannabis alone group: 25 mg/kg cannabis extract; for AUC0-Tlast increase over the cannabis alone group / Cmax increase over the cannabis alone group: 500 mg/kg SNAC and 50 mg/kg cannabis extract vs 25 mg/kg cannabis alone
Description: Summary of cannabis/SNAC oral rat pharmacokinetic (PK) study.
Methods. Animals were dosed on Day 1 and a series of blood samples were collected over a period of 4 hours post dose for pharmacokinetic evaluation. Animals were euthanized following collection of their last blood sample.

[5] = cited from earlier work; remark: listed apart in the source
[6] = 25 mg/kg cannabis extract with SNAC at either 250 or 500 mg/kg

C[C@@H]1O[C@@H](OC[C@H]2O[C@@H](Oc3c(-c4ccc(O)c(O)c4)oc4cc(O)cc(O)c4c3=O)[C@H](O)[C@@H](O)[C@@H]2O)[C@H](O)[C@H](O)[C@H]1O [Rutin]
water solubility (in words) [1]: low water solubility

O=C([O-])CCCCCCCNC(=O)c1ccccc1O.[Na+] [SNAC, sodium N-[8-(2-hydroxybenzoyl)amino] caprylate]
effect of the absorption enhancer on the duration of action of cannabis (study participants [2]): no effect on the duration of action of cannabis | effect of the absorption enhancer on the duration of action of cannabis (study participants [3]): no effect on the duration of action of cannabis

CCCCCc1cc(O)c2c(c1)OC(C)(C)[C@@H]1CCC(C)=C[C@@H]21 [THC, delta-9-tetrahydrocannabinol]
Cmax increase over cannabis alone [4, 6]: 1.4 fold | AUC compared to the cannabis alone group ([4]; 250 mg/kg SNAC group): 1.1 fold | AUC compared to the cannabis alone group ([4]; 500 mg/kg SNAC group): lower | AUC compared to the cannabis alone group ([4]; both SNAC groups (250 and 500 mg/kg)): comparable | AUC0-Tlast increase over the cannabis alone group [4]: 6.3 fold | Cmax increase over the cannabis alone group [4]: 6.9 fold | duration of action / effects ([5]; after oral administration): 4 to 6 h | onset of action ([5]; after oral administration): up to 1.5 hours | peak effect at ([5]; after oral administration): 2 to 4 h | absorbed ([5]; after single oral doses): 90-95% | administered dose that reaches the systemic circulation ([5]; oral, first pass hepatic metabolism and poor aqueous solubility): 4-20%

Oc1ccc(C=Cc2cc(O)cc(O)c2)cc1 [Resveratrol]
aqueous solubility [1]: 30 µg/mL (≈ 131 µM)

COc1cc(CNC(=O)CCCC/C=C/C(C)C)ccc1O [Capsaicin]
water solubility (in words) [1]: low water solubility

COc1ccc([C@@H]2CC(=O)c3c(O)cc(O[C@@H]4O[C@H](CO[C@@H]5O[C@@H](C)[C@H](O)[C@@H](O)[C@H]5O)[C@@H](O)[C@H](O)[C@H]4O)cc3O2)cc1O [Hesperidin]
water solubility (in words) [1]: low water solubility

CC[C@]1(O)C[C@@H]2CN(CCc3c([nH]c4ccccc34)[C@@](C(=O)OC)(c3cc4c(cc3OC)N(C)[C@H]3[C@@](O)(C(=O)OC)[C@H](OC(C)=O)[C@]5(CC)C=CCN6CC[C@]43[C@@H]65)C2)C1 [Vinblastine]
water solubility (in words) [1]: low water solubility

COC(=O)[C@H]1[C@H]2C[C@@H]3c4[nH]c5cc(OC)ccc5c4CCN3C[C@H]2C[C@@H](OC(=O)c2cc(OC)c(OC)c(OC)c2)[C@@H]1OC [Reserpine]
water solubility (in words) [1]: low water solubility

C=CCc1ccc(O)c(OC)c1 [Eugenol]
water solubility (in words) [1]: low water solubility

C[C@@H]1O[C@@H](O[C@H]2[C@H](Oc3cc(O)c4c(c3)O[C@H](c3ccc(O)cc3)CC4=O)O[C@H](CO)[C@@H](O)[C@@H]2O)[C@H](O)[C@H](O)[C@H]1O [Naringin]
water solubility (in words) [1]: low water solubility

Cc1cc(O)c2c(=O)c3c(O)cc(O)c4c5c(O)cc(O)c6c(=O)c7c(O)cc(C)c8c1c2c(c34)c(c78)c65 [Hypericin]
water solubility (in words) [1]: insoluble in water

COc1cc(/C=C/C(=O)CC(=O)/C=C/c2ccc(O)c(OC)c2)ccc1O [Curcumin]
aqueous solubility [1]: < 100 µg/mL

C=C(C)[C@@H]1CCC(C)=C[C@H]1c1c(O)cc(CCCCC)cc1O [CBD, cannabidiol]
Cmax increase over cannabis alone ([4]; 25 mg/kg cannabis extract with SNAC 250 mg/kg): 2.9 fold | Cmax increase over cannabis alone ([4]; 25 mg/kg cannabis extract with SNAC 500 mg/kg): 2.8 fold | Cmax increase over cannabis alone [4, 6]: 2.8 fold | AUC0-Tlast increase over the cannabis alone group [4]: 22.1 fold | Cmax increase over the cannabis alone group [4]: 14.2 fold | water solubility (in words) [1]: very low or no solubility in water

C[C@@H]1O[C@@H](Oc2c(-c3ccc(O)c(O)c3)oc3cc(O)cc(O)c3c2=O)[C@H](O)[C@H](O)[C@H]1O [Quercitrin]
water solubility (in words) [1]: low water solubility

C=CC(C)(O)CCC=C(C)C (stereo not shown) [Linalool]
water solubility (in words) [1]: low water solubility
